Measurements reported in ChEMBL document CHEMBL1909046, “DrugMatrix in vitro pharmacology data”.

Tests used:
[1] = DRUGMATRIX: Tumor Necrosis Factor (TNF), Non-Selective radioligand binding (ligand: [125I] TNF-alpha); type: cell membranes, Membrane; conditions: u-937; Not Active = under 50% inhibition at 10 µM
[2] = DRUGMATRIX: Calcium Channel Type L, Phenylalkylamine radioligand binding (ligand: [3H] (-)-Desmethoxyverapamil (D-888)); type: cell membranes, Rattus norvegicus, Wistar, Brain, Membrane; conditions: Not Active = under 50% inhibition at 10 µM
[3] = DRUGMATRIX: GABAA, Muscimol, Central radioligand binding (ligand: [3H] Muscimol); type: cell membranes, Rattus norvegicus, Wistar, Brain, Membrane; conditions: Not Active = under 50% inhibition at 10 µM
[4] = target: T1, Interstitial collagenase (Homo sapiens, UniProt P03956); test: biochemical; type: tissue-based, Rheumatoid synovial fibroblasts;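 also: MMP-1 enzyme inhibition assay using a peptide substrate; in other assays of this panel Not Active means under 50% inhibition at 10 µM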
T1 sequence (P03956 whole entry): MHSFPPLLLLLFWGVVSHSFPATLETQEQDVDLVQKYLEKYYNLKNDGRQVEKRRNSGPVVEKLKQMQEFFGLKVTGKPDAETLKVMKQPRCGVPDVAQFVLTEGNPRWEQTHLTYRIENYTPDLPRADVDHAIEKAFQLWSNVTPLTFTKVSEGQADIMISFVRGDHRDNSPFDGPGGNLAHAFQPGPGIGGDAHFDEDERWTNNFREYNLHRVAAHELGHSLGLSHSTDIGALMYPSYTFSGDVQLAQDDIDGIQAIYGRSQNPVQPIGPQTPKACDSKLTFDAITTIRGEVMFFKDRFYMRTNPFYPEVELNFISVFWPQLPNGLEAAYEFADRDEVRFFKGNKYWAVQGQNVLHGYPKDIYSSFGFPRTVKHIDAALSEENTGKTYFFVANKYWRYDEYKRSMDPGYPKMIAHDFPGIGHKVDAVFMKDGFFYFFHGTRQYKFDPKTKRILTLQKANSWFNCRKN

[5] = target: Matrix metalloproteinase-9 (Homo sapiens, UniProt P14780); test: biochemical; type: cell-based;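 also: inhibition of isolated MMP-9 enzyme activity toward a synthetic peptide substrate, from the DrugMatrix protease screening panel; in other assays of this panel Not Active means under 50% inhibition at 10 µM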
Matrix metalloproteinase-9, sequence (P14780 whole entry): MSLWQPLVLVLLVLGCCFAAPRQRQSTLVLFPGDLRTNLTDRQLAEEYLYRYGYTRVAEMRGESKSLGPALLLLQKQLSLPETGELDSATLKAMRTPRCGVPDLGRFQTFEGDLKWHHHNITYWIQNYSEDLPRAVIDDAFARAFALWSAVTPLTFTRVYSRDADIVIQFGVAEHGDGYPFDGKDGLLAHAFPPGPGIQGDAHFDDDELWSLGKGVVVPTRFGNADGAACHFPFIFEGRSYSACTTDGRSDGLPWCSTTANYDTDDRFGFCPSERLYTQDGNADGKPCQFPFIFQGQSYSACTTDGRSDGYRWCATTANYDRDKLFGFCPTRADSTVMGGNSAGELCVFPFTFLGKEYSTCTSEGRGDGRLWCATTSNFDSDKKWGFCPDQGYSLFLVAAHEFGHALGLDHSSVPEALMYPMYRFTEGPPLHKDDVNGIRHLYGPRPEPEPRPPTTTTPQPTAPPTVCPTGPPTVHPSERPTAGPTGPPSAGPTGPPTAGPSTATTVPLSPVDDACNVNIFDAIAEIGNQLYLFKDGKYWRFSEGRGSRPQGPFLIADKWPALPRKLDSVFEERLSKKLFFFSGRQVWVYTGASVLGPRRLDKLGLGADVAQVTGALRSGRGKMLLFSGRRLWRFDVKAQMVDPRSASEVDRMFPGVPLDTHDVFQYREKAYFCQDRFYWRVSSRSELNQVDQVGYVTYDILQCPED

[6] = target: 5-hydroxytryptamine receptor 1B (Rattus norvegicus, UniProt P28564); type: cell membranes, Wistar, Cerebral cortex, Membrane; also: in other assays of this panel Not Active means under 50% inhibition at 10 µM
5-hydroxytryptamine receptor 1B, sequence (P28564 whole entry): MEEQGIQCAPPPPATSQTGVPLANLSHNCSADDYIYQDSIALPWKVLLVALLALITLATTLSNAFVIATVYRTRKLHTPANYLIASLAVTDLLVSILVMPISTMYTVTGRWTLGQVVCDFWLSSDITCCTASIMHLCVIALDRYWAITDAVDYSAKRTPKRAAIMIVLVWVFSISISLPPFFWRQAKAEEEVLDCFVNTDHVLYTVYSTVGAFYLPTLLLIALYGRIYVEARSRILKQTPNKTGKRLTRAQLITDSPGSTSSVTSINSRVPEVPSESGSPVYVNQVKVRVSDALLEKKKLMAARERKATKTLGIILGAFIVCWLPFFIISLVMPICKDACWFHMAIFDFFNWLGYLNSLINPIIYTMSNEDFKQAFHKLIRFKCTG

[7] = target: Cytochrome P450 2E1 (Homo sapiens, UniProt P05181); conditions: bti-tn-5b1-4; also: in other assays of this panel Not Active means under 50% inhibition at 10 µM
Cytochrome P450 2E1, sequence (P05181 whole entry): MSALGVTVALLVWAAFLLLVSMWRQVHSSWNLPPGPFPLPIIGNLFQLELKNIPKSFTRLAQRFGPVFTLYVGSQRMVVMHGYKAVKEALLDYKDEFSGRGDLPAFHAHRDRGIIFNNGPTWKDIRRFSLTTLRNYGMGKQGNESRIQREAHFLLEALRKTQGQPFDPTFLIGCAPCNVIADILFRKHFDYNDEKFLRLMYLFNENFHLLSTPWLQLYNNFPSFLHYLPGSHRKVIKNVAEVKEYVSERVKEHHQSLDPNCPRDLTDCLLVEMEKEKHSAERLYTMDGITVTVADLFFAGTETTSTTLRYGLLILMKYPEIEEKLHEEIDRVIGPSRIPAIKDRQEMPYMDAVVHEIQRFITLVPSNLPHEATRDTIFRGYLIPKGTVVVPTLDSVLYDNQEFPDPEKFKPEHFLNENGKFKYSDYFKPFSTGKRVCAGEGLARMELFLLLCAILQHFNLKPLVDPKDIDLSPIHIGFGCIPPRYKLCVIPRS

Row | Compound | IC50 [1] | Ki [1] | IC50 ([2]; read-out: IC50) [µM] | Ki ([2]; read-out: Ki) [µM] | IC50 [3] | Ki [3] | IC50 [4] | IC50 [5] | IC50 [6] | IC50 [7] | Ki [7] | IC50 [2] | Ki [2] | IC50 ([6]; read-out: IC50) [nM] | Ki ([6]; read-out: Ki) [nM]
1 | Cc1cc2c(OCC(CNC(C)(C)C)OC(=O)c3ccccc3)cccc2[nH]1 (stereo not drawn) [BOPINDOLOL] | Not Active | Not Active | 2.9 | 2.82 | Not Active | Not Active | Not Active | Not Active | Not Active | Not Active | Not Active |  |  |  | 
2 | Brc1c(NC2=NCCN2)ccc2nccnc12 [BRIMONIDINE] | Not Active | Not Active |  |  | Not Active | Not Active | Not Active | Not Active | Not Active | Not Active | Not Active | Not Active | Not Active |  | 
3 | CN(C)[C@@H]1C(O)=C(C(N)=O)C(=O)[C@@]2(O)C(O)=C3C(=O)c4c(O)ccc(Cl)c4[C@@](C)(O)[C@H]3C[C@@H]12 [CHLORTETRACYCLINE] | Not Active | Not Active |  |  | Not Active | Not Active | Not Active | Not Active | Not Active | Not Active | Not Active | Not Active | Not Active |  | 
4 | CN/C(=N\CCSCc1nc[nH]c1C)NC#N [CIMETIDINE] | Not Active | Not Active |  |  | Not Active | Not Active | Not Active | Not Active | Not Active | Not Active | Not Active | Not Active | Not Active |  | 
5 | COc1cc(N)c(Cl)cc1C(=O)NC1CCN(CCCOc2ccc(F)cc2)CC1OC (stereo not drawn) [CISAPRIDE] | Not Active | Not Active | 0.53 | 0.515 | Not Active | Not Active | Not Active | Not Active | Not Active | Not Active | Not Active |  |  |  | 
6 | CCC(=O)O[C@]1(C(=O)CCl)[C@@H](C)C[C@H]2[C@@H]3CCC4=CC(=O)C=C[C@]4(C)[C@@]3(F)[C@@H](O)C[C@@]21C [CLOBETASOL PROPIONATE] | Not Active | Not Active |  |  | Not Active | Not Active | Not Active | Not Active | Not Active | Not Active | Not Active | Not Active | Not Active |  | 
7 | O=C1CN=C(c2ccccc2Cl)c2cc([N+](=O)[O-])ccc2N1 [CLONAZEPAM] | Not Active | Not Active |  |  | Not Active | Not Active | Not Active | Not Active | Not Active | Not Active | Not Active | Not Active | Not Active |  | 
8 | Nc1ccn([C@@H]2O[C@H](CO)[C@@H](O)[C@@H]2O)c(=O)n1 [CYTARABINE] | Not Active | Not Active |  |  | Not Active | Not Active | Not Active | Not Active | Not Active | Not Active | Not Active | Not Active | Not Active |  | 
9 | C[C@@H]1C[C@H]2[C@@H]3CCC4=CC(=O)C=C[C@]4(C)[C@@]3(F)[C@@H](O)C[C@]2(C)[C@H]1C(=O)CO [DESOXIMETASONE] | Not Active | Not Active |  |  | Not Active | Not Active | Not Active | Not Active | Not Active | Not Active | Not Active | Not Active | Not Active |  | 
10 | C[C@@H]1C[C@H]2[C@@H]3CCC4=CC(=O)C=C[C@]4(C)[C@@]3(F)[C@@H](O)C[C@]2(C)[C@@]1(O)C(=O)CO [DEXAMETHASONE] | Not Active | Not Active |  |  | Not Active | Not Active | Not Active | Not Active | Not Active | Not Active | Not Active | Not Active | Not Active |  | 
11 | CN(C)CC[C@@H](c1ccc(Cl)cc1)c1ccccn1 [DEXCHLORPHENIRAMINE] | Not Active | Not Active | 3.81 | 3.7 | Not Active | Not Active | Not Active | Not Active | Not Active | Not Active | Not Active |  |  |  | 
12 | C[C@@H]1CC[C@@]2(OC1)O[C@H]1[C@@H](O)[C@H]3[C@@H]4CC[C@H]5C[C@@H](O[C@@H]6O[C@H](CO)[C@H](O[C@@H]7O[C@H](CO)C(O)[C@H](O[C@@H]8OC[C@@H](O)[C@H](O)[C@H]8O)[C@H]7O[C@@H]7O[C@H](CO)[C@H](O)[C@H](O[C@@H]8O[C@H](CO)[C@@H](O)[C@H](O)[C@H]8O)[C@H]7O)[C@H](O)[C@H]6O)[C@H](O)C[C@]5(C)[C@H]4CC[C@]3(C)[C@H]1[C@@H]2C (stereo partly drawn) [DIGITONIN] | Not Active | Not Active |  |  | Not Active | Not Active | Not Active | Not Active | Not Active | Not Active | Not Active | Not Active | Not Active |  | 
13 | OC(CCCN1CCCCC1)(c1ccccc1)c1ccccc1 [DIPHENIDOL] | Not Active | Not Active | 4.5 | 4.38 | Not Active | Not Active | Not Active | Not Active | Not Active | Not Active | Not Active |  |  |  | 
14 | C[C@H]1O[C@@H](n2cc(F)c(=O)[nH]c2=O)[C@H](O)[C@@H]1O [DOXIFLURIDINE] | Not Active | Not Active |  |  | Not Active | Not Active | Not Active | Not Active | Not Active | Not Active | Not Active | Not Active | Not Active |  | 
15 | Cn1c(=O)c2c(ncn2CC(O)CO)n(C)c1=O (stereo not drawn) [DYPHYLLINE] | Not Active | Not Active |  |  | Not Active | Not Active | Not Active | Not Active | Not Active | Not Active | Not Active | Not Active | Not Active |  | 
16 | CC[C@H]1CN2CCc3cc(OC)c(OC)cc3[C@@H]2C[C@@H]1C[C@H]1NCCc2cc(OC)c(OC)cc21 [EMETINE] | Not Active | Not Active |  |  | Not Active | Not Active | Not Active | Not Active | Not Active | Not Active | Not Active | Not Active | Not Active |  | 
17 | C[C@@H](CO)NC(=O)[C@@H]1C=C2c3cccc4[nH]cc(c34)C[C@H]2N(C)C1 [ERGONOVINE] | Not Active | Not Active |  |  | Not Active | Not Active | Not Active | Not Active |  | Not Active | Not Active | Not Active | Not Active | 2.85 | 1.29
18 | COC(=O)CCc1ccc(OCC(O)CNC(C)C)cc1 (stereo not drawn) [ESMOLOL] | Not Active | Not Active |  |  | Not Active | Not Active | Not Active | Not Active | Not Active | Not Active | Not Active | Not Active | Not Active |  | 
19 | CCC1(C)CC(=O)NC1=O (stereo not drawn) [ETHOSUXIMIDE] | Not Active | Not Active |  |  | Not Active | Not Active | Not Active | Not Active | Not Active | Not Active | Not Active | Not Active | Not Active |  | 
20 | C#C[C@]1(OC(C)=O)CC[C@H]2[C@@H]3CCC4=C[C@@H](OC(C)=O)CC[C@@H]4[C@H]3CC[C@@]21C [ETHYNODIOL DIACETATE] | Not Active | Not Active |  |  | Not Active | Not Active | Not Active | Not Active | Not Active | Not Active | Not Active | Not Active | Not Active |  | 
21 | C=CCc1ccc(O)c(OC)c1 [EUGENOL] | Not Active | Not Active |  |  | Not Active | Not Active | Not Active | Not Active | Not Active | Not Active | Not Active | Not Active | Not Active |  | 
22 | CC(C(=O)O)c1cccc(Oc2ccccc2)c1 (stereo not drawn) [FENOPROFEN] | Not Active | Not Active |  |  | Not Active | Not Active | Not Active | Not Active | Not Active | Not Active | Not Active | Not Active | Not Active |  | 
